Publication PMC11527929 (European Journal of Nuclear Medicine and Molecular Imaging, 2024)

Experiments:
SCLC = details: six SCLC patients; no response on CT scans; cited from earlier work
Source text: An alternative therapeutic approach for extended-stage disease could be peptide-receptor radionuclide therapy (PRRT) with somatostatin receptor (SSTR) ligands. The vast majority of SCLC (> 80%) express neuroendocrine markers, and about 50% of all SCLCs express significant levels of somatostatin-receptor type 2 (SSTR2). […] To date, clinical outcomes of retrospective series, which investigated SSTR2-targeted PRRT in SCLC have been rather inconclusive. In one trial, six patients treated with ^90Y-D ...

H446 cells [1] = assay: Cell viability, AlamarBlue HS assay; format: cell-based; details: Homo sapiens, NCI-H446, PARPi alone for 72 h, 3 independent experiments
Protocol: (§1) Cell viability was determined using the AlamarBlue high sensitivity (HS) assay (Thermo Fisher Scientific, #A50101). 5,000 cells per well were seeded in 96-well black clear F-bottom plates (H446) or 96-well black clear V-bottom plates (H69). H69 suspension cells were centrifuged and resuspended for each washing step. […] All wells, including untreated wells, contained 0.5% (v/v) DMSO throughout the assay. 96 h after seeding, medium was removed and resazurin (AlamarBlue HS) solution was added to each well at a final concentration of 10% (v/v) and incubated for 1 h at 37 °C before fluorescence was measured using a Biotek Synergy HT plate reader (Excitation: 540/35 nm, Emission: 590/20 nm). Relative viability was calculated in relation to “untreated” wells. We carried out three biological repeats with 3–6 technical replicates per plate. IC50-values were computed by applying the nonlinear regression function (Dose–response – Inhibition; Inhibitor vs. normalized response) in GraphPad Prism 9.

H69 cells = assay: Cell viability, AlamarBlue HS assay; format: cell-based; details: Homo sapiens, NCI-H69, PARPi alone for 72 h, 3 independent experiments
Protocol: as §1

H446 cells [2] = assay: Clonogenic assay; format: cell-based, human; details: 0.5 µM PARPi 72 h and/or 12.5 kBq [177Lu]Lu-DOTA-TOC 24 h, colonies after 7 days, mean of 2 independent experiments
Protocol: H446 cells were seeded in 6-well plates 48 h prior to the experiment. […] Following treatment, compounds were removed, and fresh medium was added. After 7 days, colonies were fixed with cold methanol, stained with 5% crystal violet in PBS and subsequently counted. Survival fractions were calculated by dividing the plating efficiency as counted colonies divided by seeded cells of the respective treatment group through the plating efficiency of the untreated control group.

H69 xenografts [3] = assay: In vivo treatment study, single PRRT dose; design: species or system athymic nude mice; details: for tumor doubling time: PARPi 10 mg/kg i.p. days 1–5 and 8–12, PRRT ~40 MBq single dose on day 3, untreated 3.6 days; for time after start of treatment to mean tumor volume of 400 mm^3: untreated 10 days
Protocol: Authorization for all animal experiments was obtained from the Regierung von Oberbayern. Mice were housed under specific-pathogen free conditions with access to mouse chow and water ad libitum. […] Animals were regularly monitored as defined in the license.
Mice in the PARPi and combination therapy groups received daily i.p. injections of PARPi on days 1–5 and 8–12 at a dose of 10 mg/kg. […] Length, width and depth of the subcutaneous tumors were measured daily using a caliper and tumor volume was calculated using the ellipsoid formula. Mice were weighed regularly after start of the treatment. Mice were euthanized when they reached pre-defined criteria. […] In the H69 cohort, one animal per group was euthanized 3 days after PRRT (or equivalent time) and tumor, bone and kidney tissues were processed for histopathology.

H446 xenografts = assay: In vivo treatment study, single PRRT dose; design: species or system athymic nude mice; details: for tumor doubling time: PARPi 10 mg/kg i.p. days 1–5 and 8–12, PRRT ~40 MBq single dose on day 3, untreated 3.6; for median survival: single PRRT dose study, untreated 12 days
Protocol: (§2) Authorization for all animal experiments was obtained from the Regierung von Oberbayern. Mice were housed under specific-pathogen free conditions with access to mouse chow and water ad libitum. Female 7–8 weeks old athymic nude mice (Crl:NU/NCr-Foxn1nu, Charles River Laboratories, Sulzfeld) were subcutaneously injected with 1–4 × 10^6 H69 or H446 cells in 1:1 RPMI-1640 medium:Matrigel (Corning Inc., #11543550). Animals were regularly monitored as defined in the license.
(§3) 10–15 days after xenografting, mice were randomized into 4 (H446) or 6 (H69) groups after stratification for tumor size to ensure a uniform initial tumor size distribution (H446: ~ 150 mm^3; H69: ~ 60 mm^3; Supplementary Fig. 2A, B). Mice in the PARPi and combination therapy groups received daily i.p. injections of PARPi on days 1–5 and 8–12 at a dose of 10 mg/kg. […] Length, width and depth of the subcutaneous tumors were measured daily using a caliper and tumor volume was calculated using the ellipsoid formula. Mice were weighed regularly after start of the treatment. Mice were euthanized when they reached pre-defined criteria. During the study, only the criteria of tumor growth (single dimension ≤ 15 mm) or maximum observation time came into effect. In the H69 cohort, one animal per group was euthanized 3 days after PRRT (or equivalent time) and tumor, bone and kidney tissues were processed for histopathology.

bone marrow and kidney = assay: Histopathology (H&E) after in vivo treatment; design: species or system athymic nude mice; details: H69 cohort, single dose study; day 3 after PRRT; one animal per group
Protocol: as §3
All samples were fixated in 4% PFA for 24 h and subsequently stored in 70% ethanol at 4 °C until the radioactivity had fully decayed. Samples containing bone for bone marrow analysis were decalcified using OSTEOSOFT® (Merck) solution. Formalin-fixed paraffin embedded (FFPE) tissues were cut into 2 µm sections using a microtome. After deparaffinization and rehydration, tissue sections were subjected to standard H&E staining. Tumor sections were additionally subjected to IHC. […]

H69 xenografts [4] = assay: In vivo treatment study, fractionated PRRT dose; design: species or system athymic nude mice; details: three-fractionated arm: 3 × 20 MBq PRRT days 3, 9, 15, Olaparib 10 mg/kg i.p. days 1–5, 7–11, 13–17, untreated 27 days
Protocol: as §2
Prior to the beginning of treatment, mice were randomly assigned to 7 treatment groups (n = 5–6 animals/group) with an initial mean tumor volume of approx. 50 mm^3 per group (Supplementary Fig. 2C). […] Body weight and tumor volumes were determined every 2–3 days. Animals were sacrificed when pre-defined endpoint criteria or humane endpoint was reached. In this study, only the pre-defined endpoint, a tumor volume of 1000 mm^3 with a maximal size of ≤ 15 mm in a single dimension, was reached. After a maximum observation period of 4 weeks after the last treatment, the study terminated in accordance with the animal protocol.

Compound | median progression-free survival (SCLC) | IC50 (H446 cells [1]) | IC50 (H69 cells) | mean surviving fraction, of untreated cells (H446 cells [2]) | tumor doubling time (H69 xenografts [3]) | time after start of treatment to mean tumor volume of 400 mm^3 (H69 xenografts [3]; single PRRT dose study) | tumor doubling time (H446 xenografts) | median survival (H446 xenografts) | angiectasis in the bone marrow (H&E) (bone marrow and kidney) | bone marrow cellularity (H&E) (bone marrow and kidney) | median survival (H69 xenografts [3]; single PRRT dose study, untreated 18 days) | median survival (H69 xenografts [4])
C[C@@H](O)[C@@H]1NC(=O)[C@H](CCCCN)NC(=O)[C@@H](Cc2c[nH]c3ccccc23)NC(=O)[C@H](Cc2ccc(O)cc2)NC(=O)[C@@H](NC(=O)[C@@H](Cc2ccccc2)NC(=O)CN2CCN(CC(=O)[O-])CCN(CC(=O)[O-])CCN(CC(=O)[O-])CC2)CSSC[C@@H](C(=O)N[C@H](CO)[C@@H](C)O)NC1=O.[90Y+3] [^90Y-DOTATOC] | 38 days |  |  |  |  |  |  |  |  |  |  | 
CNCc1ccc(-c2[nH]c3cc(F)cc4c3c2CCNC4=O)cc1 [Rucaparib] |  | 20 to 40 µM | 20 to 40 µM | 13% | 4.1 days | 13 days | 3.9 days | 13 days | low levels of angiectasis | slight bone marrow hypercellularity |  | 
O=C(c1cc(Cc2n[nH]c(=O)c3ccccc23)ccc1F)N1CCN(C(=O)C2CC2)CC1 [Olaparib] |  | 20 to 40 µM | 20 to 40 µM | 7% | 4.0 days | 13 days |  |  |  |  |  | 
C[C@@H](O)[C@@H]1NC(=O)[C@H](CCCCN)NC(=O)[C@@H](Cc2c[nH]c3ccccc23)NC(=O)[C@H](Cc2ccc(O)cc2)NC(=O)[C@@H](NC(=O)[C@@H](Cc2ccccc2)NC(=O)CN2CCN(CC(=O)O)CCN(CC(=O)O)CCN(CC(=O)O)CC2)CSSC[C@@H](C(=O)N[C@H](CO)[C@@H](C)O)NC1=O [[^177Lu]Lu-DOTA-TOC, metal not drawn] |  |  |  |  | 6.4 days | 17 days | 3.7 days | 11 days |  |  | 24 days | 34 days
